{"source": "paper PMC12395388", "about": "(Regulatory toxicology and pharmacology : RTP, 2024)", "key": {"E. coli WU3610": {"test_system": "E. coli WU3610", "settings": "ref Elespuru and Lijinsky, 1976; cited from earlier work"}, "Ames tester strains": {"test_system": "Ames tester strains", "settings": "cited from earlier work"}, "[1]": {"test_system": "Salmonella typhimurium TA100", "test": "Preincubation Ames test, strain TA100", "assay_type": "cell-based", "settings": "for S9-mediated mutagenicity in TA100: with S9 activation"}, "[2]": {"settings": "published by FDA as of September 4, 2024, ref FDA, 2024a; cited from earlier work"}, "Drosophila": {"test_system": "Drosophila", "settings": "cited from earlier work"}, "[3]": {"settings": "PC1 most potent, PC5 least potent; ref FDA, 2024a; cited from earlier work"}, "[4]": {"test_system": "Salmonella typhimurium TA1535", "test": "Preincubation Ames test, strain TA1535", "assay_type": "cell-based", "settings": "for Direct-acting mutagenicity in TA1535: no exogenous metabolic activation (no S9); for S9-mediated mutagenicity in TA1535: with S9 activation"}, "[5]": {"test_system": "Salmonella typhimurium tester strains TA98, TA100, TA1535, and TA1537, and Escherichia coli strain WP2 uvrA (pKM101)", "test": "Preincubation Ames test, five tester strains", "assay_type": "cell-based", "settings": "G:C target: TA98, TA100, TA1535, TA1537; A:T target: WP2 uvrA (pKM101)"}, "[6]": {"test_system": "CHO, V79, L5178Y/Tk+/−, TK6, HepaRG cells", "settings": "cited from earlier work"}, "yeast": {"test_system": "yeast", "settings": "ref Larimer et al., 1980, cited from earlier work"}, "[7]": {"test": "Solubility in Ames test vehicles", "assay_type": "physicochemical"}, "[8]": {"settings": "listed as 1-Methyl-4-nitrosopiperizine"}, "[9]": {"settings": "listed as 1-methyl-4-nitrosopiperizine"}}}
{"smiles": "CN1CCN(N=O)CC1", "note": "[SM-4, 1-Methyl-4-nitrosopiperazine]", "values": [{"measurement": "Mutagenicity in E. coli WU3610", "setting": "E. coli WU3610", "result": "not mutagenic in E. coli WU3610"}, {"measurement": "Ames response (all S9-mediated except where noted)", "setting": "Ames tester strains; published/posted results, ref representative Ames references of Table 2", "result": "Positive"}, {"measurement": "Ames response with human liver S9", "setting": "Ames tester strains; ref Sabadie et al., 1980", "result": "Ames positive with human liver S9"}, {"measurement": "Effectiveness of time of preincubation for most effective S9", "setting": "[1]; strain TA100, 30 vs 60 min", "result": 60, "unit": "min = 30min"}, {"measurement": "S9-mediated mutagenicity in TA100", "setting": "[1]; [8]", "result": "strong S9-mediated mutagen"}, {"measurement": "S9-mediated mutagenicity in TA100", "setting": "[1]; [9]", "result": "strongly positive"}, {"measurement": "AI limit", "setting": "[2]", "result": 400, "unit": "ng/day"}, {"measurement": "Mutagenicity in Drosophila", "setting": "Drosophila; ref Nix et al., 1980", "result": "Mutagenic in yeast, Drosophila, V79 cells, host-mediated assay"}, {"measurement": "Recombination in Drosophila", "setting": "Drosophila; ref Vogel and Nivard, 1993", "result": "recombinogen in Drosophila"}, {"measurement": "CPCA Potency Category (PC)", "setting": "[3]", "result": "PC3"}, {"measurement": "Direct-acting mutagenicity in TA1535", "setting": "[4]", "result": "a Equivocal direct-acting mutagen in TA1535."}, {"measurement": "Direct-acting mutagenicity in TA1535", "setting": "[4]; [8]", "result": "weakly positive direct-acting mutagen in two of four assays"}, {"measurement": "Direct-acting mutagenicity in TA1535", "setting": "[4]; [9]", "result": "classified as ‘equivocal’ as a direct-acting mutagen"}, {"measurement": "Effectiveness of time of preincubation for most effective S9", "setting": "[4]; strain TA1535, 30 vs 60 min", "result": 60, "unit": "min = 30min"}, {"measurement": "S9-mediated mutagenicity in TA1535", "setting": "[4]; [8]", "result": "strong S9-mediated mutagen"}, {"measurement": "S9-mediated mutagenicity in TA1535", "setting": "[4]; [9]", "result": "strongly positive"}, {"measurement": "Specificity for G:C or A:T target tester strains", "setting": "[5]", "result": "positive only in G:C detecting strains"}, {"measurement": "Mutagenicity/genotoxicity in mammalian cells in vitro", "setting": "[6]; cell lines as named in the value, ref as given in Table 2 Notes", "result": "Mutagenic in yeast, Drosophila, V79 cells, host-mediated assay"}, {"measurement": "Direct-acting mutagenicity in V79 cells", "setting": "[6]; only summary results provided, ref Kuroki et al., 1977", "result": "does not appear to be a direct-acting mutagen"}, {"measurement": "Direct-acting mutagenicity in yeast", "setting": "yeast; only summary results provided", "result": "does not appear to be a direct-acting mutagen"}, {"measurement": "Mutagenicity/genotoxicity in yeast", "setting": "yeast; Mehta and Von Borstel, 1984", "result": "Mutagenic in yeast, Drosophila, V79 cells, host-mediated assay"}]}
{"smiles": "O=NN1CCN(c2cc3c(cc2F)c(=O)c(C(=O)O)cn3C2CC2)CC1", "note": "[NDSRI-24, 1-Cyclopropyl-6-fluoro-7-(4-nitrosopiperazin-1-yl)-4-oxoquinoline-3-carboxylic acid]", "values": [{"measurement": "Solubility in test vehicles", "setting": "[7]", "result": "poorly soluble in all vehicles"}]}
